“Also recorded” adds a separate entry of the source.

Series [1] can be described thus: Octanol–water partition coefficient (shake-flask, UV–Vis). It is filed as physicochemical. Conditions: 21 °C. Here is the method: • (c) Octanol–water partition coefficients (Log Pow). Partition coefficients (Pow; IUPAC: KD partition constant), defined as Pow = corg/caq, where corg and caq are molar concentrations of the selected compound in the organic and aqueous phase, respectively, were determined by the shake-flask method and UV–Vis measurements. Deionized water and 1-octanol were vigorously stirred for 24 h to enable saturation of both phases, then separated by centrifugation. A stock solution of the selected diiron compound (ca. 2 mg; 2a–c, 3b, 4a–c, 5a, 5c, 6b,c, 7) was prepared by first adding acetone (50 μL, to help solubilization), followed by water-saturated octanol (2.5 mL). The solution was diluted with water-saturated octanol (ca. 1:3 v/v ratio, cFe2 ≈ 10^−4 M, so that 1.5 ≤ A ≤ 2.0 at λmax) and the UV–Vis spectrum was recorded (A^0org). An aliquot of the solution (Vorg = 1.2 mL) was transferred into a test tube and octanol-saturated water (Vorg = Vaq = 1.2 mL) was added. The mixture was vigorously stirred for 15 min at 21 °C and then centrifuged (5000 rpm, 10 min). The UV–Vis spectrum of the organic phase was recorded (A^forg) and the partition coefficient was calculated as Pow = A^forg/(A^0org − A^forg), where A^0org and A^forg are the absorbance in the organic phase before and after partition with the aqueous phase, respectively. An inverse procedure was followed for 3a, 3c, 5b and 6a, starting from a solution of the compound in octanol-saturated water. The partition coefficient was calculated as Pow = (A^0aq − A^faq)/A^faq where A^0aq and A^faq are the absorbance in the aqueous phase before and after partition with the organic phase, respectively. The wavelength of the maximum absorption of each compound (ca. 300 nm) was used for UV–Vis quantitation. The procedure was repeated three times for each sample (from the same stock solution); results are given as mean ± standard deviation.

The nature of series [2]: Stability in DMSO-d6/D2O or D2O solution at 37 °C for 72 h (1H NMR). The following applies: DMSO-d6/D2O (2:1 v/v), 72 h at 37 °C. Type of series: physicochemical. Here is the method:
• (a) Solubility in D2O. A suspension of the selected diiron compound (3–5 mg) in a D2O solution (ca. 1 mL) containing Me2SO2 (3.36 × 10^−3 M) as internal standard was vigorously stirred at 21 °C for 1.5 h. The resulting saturated solution was filtered over celite, transferred into an NMR tube and then analyzed by ^1H NMR spectroscopy (delay time = 3 s; number of scans = 20). The concentration (solubility) was calculated by the relative integral (related to Cp and/or NMe signals) with respect to Me2SO2 (δ = 3.14 ppm). • (b) Stability in DMSO-d6/D2O solution. The selected diiron compound (ca. 4 mg) was added of 1 mL of D2O (3a,c) or DMSO-d6/D2O (2:1 v/v) mixture (2a,c, 3b, 4a–c, 5a–c, 6a–c, 7), containing Me2SO2 (3.36 × 10^−3 M). The resulting mixture was stirred for 30 min and then filtered over celite; the filtrated solution was transferred into an NMR tube. The sample was analyzed by ^1H NMR (time = 0) and then heated at 37 °C for 72 h. After cooling to room temperature, the solution was separated from a small amount of solid by filtration over celite, and the new ^1H NMR spectrum was recorded (delay time = 3 s; number of scans = 20). In every case, no newly formed organometallic species was detected. The amount of starting material in solution (% with respect to the initial spectrum) was calculated by the relative integral (vs. Cp and/or NMe signals) with respect to Me2SO2 as internal standard.

The subject of series [3] is A2780 cells. Put plainly: Intracellular ROS production, DCFH-DA assay. Type of series: cell-based, human. Conditions: 20 μM, up to 24 h, DCFH-DA fluorescence. Here is the method: The intracellular production of reactive oxygen species (ROS) upon treatment of the compounds 3b, 4a, 4c, 5b and 6c was measured by using the DCFH-DA (2′,7′-dichlorodihydrofluorescein diacetate, Merck) assay, based on cellular uptake of the non-fluorescent diacetate following deacetylation by esterases (2′,7′-dichlorodihydrofluorescein, DCFH) and oxidation to the fluorescent dichlorofluorescein (2′,7′-dichlorofluorescein, DCF). A2780 cells were seeded at concentration of 4 × 10^4 cells/well/90 µL of complete growth medium into 96-well plates. After overnight incubation, the cells were treated following manufacturer protocol. 100 µL of a solution containing the fluorogenic probe were added to the culture medium and, after 1 h of incubation with 5% CO2 at 37 °C, the cells were exposed to a final concentration of 20 µM of the tested complexes; H2O2 100 µM was used as a positive control. Stock solutions of compounds were prepared as described above; cells incubated with equal amounts of DMSO in supplemented RPMI were used as control. The fluorescence was measured up to 24 h with an excitation wavelength of 485 nm and with a 535 nm emission filter by Multilabel Counter (PerkinElmer). For each tested compound, assay was performed on triplicate. The data were reported as mean ± standard deviation, statistical differences were analyzed using one-way analysis of variance (ANOVA) and a Tukey test was used for post hoc analysis. A p-value < 0.05 is considered statistically significant.

“[Fe2Cp2(CO)(μ-CO){μ-η^1:η^3-C^3(Me)C^2(Me)C^1N(CH2Ph)2}]CF3SO3 [Compound 2c]”: the “Log Pow” value in series [1] worked out at 0.56 ± 0.08. Besides, the “Stability % (residual % of starting material)” value in series [2] amounted to 87%.
Consider “[Fe2Cp2(CO)(μ-CO){μ-η^1:η^3-C^3(Me)C^2(Me)C^1NMe(2-naphthyl)}]CF3SO3 [Compound 7]”, for which, in series [1], the “Log Pow” value is reported as 0.38 ± 0.02. Besides, in series [2], the “Stability % (residual % of starting material)” value is on record as 66%.
As to “[Fe2Cp2(CO)(μ-CO){μ-η^1:η^3-C^3(Me)C^2(Me)C^1NMe(4-C6H4OMe)}]CF3SO3 [Compound 6c]”, in series [3], the “Intracellular ROS production” value is “appreciable ROS production”. The “Log Pow” value in series [1] is recorded as −0.21 ± 0.01. Moreover, the “Stability % (residual % of starting material)” value in series [2] is reported as 86%.
The like results for “[Fe2Cp2(CO)(μ-CO){μ-η^1:η^3-C^3(Me)C^2(Me)C^1NMe(CH2Ph)}]CF3SO3 [Compound 5b]” were, in that order, “appreciable ROS production; also recorded: most effective of the series”, −0.43 ± 0.01 and 90%.
The like results for “[Fe2Cp2(CO)(μ-CO){μ-η^1:η^3-C^3(Me)C^2(Me)C^1NMe(Cy)}]CF3SO3 [Compound 4c]” were, in that order, “appreciable ROS production”, −0.17 ± 0.01 and 95%.
The like results for “[Fe2Cp2(CO)(μ-CO){μ-η^1:η^3-C^3(Me)C^2HC^1NMe(Cy)}]CF3SO3 [Compound 4a]” were, in that order, “appreciable ROS production”, −0.29 ± 0.03 and 95%.
Take “[Fe2Cp2(CO)(μ-CO){μ-η^1:η^3-C^3(Ph)C^2HC^1NMe(4-C6H4OMe)}]CF3SO3 [Compound 6b]”: the “Log Pow” value in series [1] was 0.37 ± 0.04. Moreover, the “Stability % (residual % of starting material)” value in series [2] worked out at 76%.
Regarding “[Fe2Cp2(CO)(μ-CO){μ-η^1:η^3-C^3(Ph)C^2HC^1NMe(CH2CH = CH2)}]CF3SO3 [Compound 3b]”, the “Intracellular ROS production” value in series [3] is recorded as “appreciable ROS production”. In series [1], the “Log Pow” value is −0.09 ± 0.01. Further, the “Stability % (residual % of starting material)” value in series [2] stood at 68%.
